According to publication PMC4503722, “Novel Phenotypic Outcomes Identified for a Public Collection of Approved Drugs from a Publicly Accessible Panel of Assays” (PLoS ONE, 2015):
Like-named read-outs stand apart in the source and are kept apart here.

Key:
Colo320 = test: cells; type: cell-based; conditions: Homo sapiens
hp70S6K1 (RPS6KB1) = target: T1, hp70S6K1 (RPS6KB1) (Homo sapiens, UniProt P23443); test: Cerep LANCE kinase assay hp70S6K1 (S1 assay 31); type: biochemical; conditions: read-out: p70S6K1
T1 construct: purchased Cerep (LANCE kinase assay platform, contract assay)
T1 sequence (P23443 whole entry): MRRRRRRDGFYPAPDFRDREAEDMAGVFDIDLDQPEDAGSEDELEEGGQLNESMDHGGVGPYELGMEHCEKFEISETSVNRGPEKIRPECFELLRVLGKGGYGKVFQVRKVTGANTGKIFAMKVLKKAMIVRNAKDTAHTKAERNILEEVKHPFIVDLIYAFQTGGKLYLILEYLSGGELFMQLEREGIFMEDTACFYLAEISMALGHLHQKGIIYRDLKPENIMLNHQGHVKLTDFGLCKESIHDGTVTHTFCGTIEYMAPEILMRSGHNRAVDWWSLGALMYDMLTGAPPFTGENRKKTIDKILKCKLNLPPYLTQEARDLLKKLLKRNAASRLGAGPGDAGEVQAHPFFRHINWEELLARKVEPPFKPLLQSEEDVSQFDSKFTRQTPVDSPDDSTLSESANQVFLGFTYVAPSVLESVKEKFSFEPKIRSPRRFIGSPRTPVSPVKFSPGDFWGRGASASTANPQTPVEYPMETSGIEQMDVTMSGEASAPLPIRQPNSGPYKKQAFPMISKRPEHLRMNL

HeLa cells = test: cells; type: cell-based; conditions: read-out: CellCycle G2/M
[1] = tested on: nuclear β-catenin in C2C12 cells; test: cells; type: cell-based
HCT116 = test: cells; type: cell-based; conditions: Homo sapiens
NCI-H716 cells = test: cells; type: cell-based, Human
HT-29 = test: cells; type: cell-based; conditions: Homo sapiens
DLD-1 = test: cells; type: cell-based; conditions: Homo sapiens
SW480 = test: cells; type: cell-based; conditions: Homo sapiens
hGSK3b = target: T2, hGSK3b (Homo sapiens, UniProt P49841); test: Cerep LANCE kinase assay hGSK3b (S1 assay 34); type: biochemical; conditions: read-out: GSK3b
T2 construct: purchased Cerep (LANCE kinase assay platform, contract assay)
T2 sequence (P49841 whole entry): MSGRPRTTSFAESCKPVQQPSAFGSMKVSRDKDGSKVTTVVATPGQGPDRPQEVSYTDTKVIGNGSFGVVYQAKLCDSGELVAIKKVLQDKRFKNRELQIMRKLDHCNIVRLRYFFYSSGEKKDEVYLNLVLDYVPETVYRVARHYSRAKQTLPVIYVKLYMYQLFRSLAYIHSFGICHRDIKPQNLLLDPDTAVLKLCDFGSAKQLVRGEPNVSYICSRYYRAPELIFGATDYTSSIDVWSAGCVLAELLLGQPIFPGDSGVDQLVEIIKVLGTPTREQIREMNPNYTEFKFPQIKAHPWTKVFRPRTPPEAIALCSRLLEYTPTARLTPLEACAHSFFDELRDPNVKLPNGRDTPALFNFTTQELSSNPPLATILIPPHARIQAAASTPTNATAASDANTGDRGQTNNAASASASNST

hKDR = target: T3, hKDR (Homo sapiens, UniProt P35968); test: Cerep LANCE kinase assay hKDR (S1 assay 32); type: biochemical; conditions: read-out: KDR
T3 construct: purchased Cerep (LANCE kinase assay platform, contract assay)
T3 sequence (P35968 20-1356): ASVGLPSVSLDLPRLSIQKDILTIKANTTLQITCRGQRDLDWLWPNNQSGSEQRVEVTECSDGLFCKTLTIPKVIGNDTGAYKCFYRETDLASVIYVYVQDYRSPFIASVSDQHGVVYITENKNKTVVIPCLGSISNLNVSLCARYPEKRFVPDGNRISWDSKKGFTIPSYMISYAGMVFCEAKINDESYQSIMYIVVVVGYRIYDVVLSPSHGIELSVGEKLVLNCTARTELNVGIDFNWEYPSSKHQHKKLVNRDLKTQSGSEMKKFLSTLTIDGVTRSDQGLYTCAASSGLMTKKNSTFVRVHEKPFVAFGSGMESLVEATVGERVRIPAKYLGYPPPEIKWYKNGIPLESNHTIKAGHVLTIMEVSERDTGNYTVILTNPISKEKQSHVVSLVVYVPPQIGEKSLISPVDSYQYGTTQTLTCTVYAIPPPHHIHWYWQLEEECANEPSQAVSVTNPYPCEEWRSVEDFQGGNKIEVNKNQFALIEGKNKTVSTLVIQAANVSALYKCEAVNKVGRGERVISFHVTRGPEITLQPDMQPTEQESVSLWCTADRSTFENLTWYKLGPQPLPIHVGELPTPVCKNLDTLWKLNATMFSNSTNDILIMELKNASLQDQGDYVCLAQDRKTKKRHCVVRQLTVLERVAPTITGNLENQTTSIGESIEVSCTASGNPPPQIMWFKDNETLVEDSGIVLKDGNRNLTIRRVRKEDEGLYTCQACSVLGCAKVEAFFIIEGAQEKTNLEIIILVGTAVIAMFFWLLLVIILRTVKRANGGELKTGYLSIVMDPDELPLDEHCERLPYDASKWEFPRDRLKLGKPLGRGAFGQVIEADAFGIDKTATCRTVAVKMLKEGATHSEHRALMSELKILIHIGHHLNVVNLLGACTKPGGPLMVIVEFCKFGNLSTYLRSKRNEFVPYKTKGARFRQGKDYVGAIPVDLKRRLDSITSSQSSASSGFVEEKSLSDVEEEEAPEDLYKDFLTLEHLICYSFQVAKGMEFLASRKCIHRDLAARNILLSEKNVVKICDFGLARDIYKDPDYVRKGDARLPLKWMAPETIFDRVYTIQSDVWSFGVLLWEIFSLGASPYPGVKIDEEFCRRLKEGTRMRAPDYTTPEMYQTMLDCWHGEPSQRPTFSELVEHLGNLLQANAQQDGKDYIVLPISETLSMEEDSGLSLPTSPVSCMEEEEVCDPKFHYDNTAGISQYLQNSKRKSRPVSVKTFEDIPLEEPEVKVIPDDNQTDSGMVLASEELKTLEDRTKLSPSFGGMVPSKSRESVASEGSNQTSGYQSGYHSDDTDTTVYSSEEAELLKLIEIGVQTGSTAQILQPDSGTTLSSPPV

hJAK2 = target: T4, hJAK2 (Homo sapiens, UniProt O60674); test: Cerep LANCE kinase assay hJAK2 (S1 assay 33); type: biochemical; conditions: read-out: JAK2
T4 construct: purchased Cerep (LANCE kinase assay platform, contract assay)
T4 sequence (O60674 whole entry): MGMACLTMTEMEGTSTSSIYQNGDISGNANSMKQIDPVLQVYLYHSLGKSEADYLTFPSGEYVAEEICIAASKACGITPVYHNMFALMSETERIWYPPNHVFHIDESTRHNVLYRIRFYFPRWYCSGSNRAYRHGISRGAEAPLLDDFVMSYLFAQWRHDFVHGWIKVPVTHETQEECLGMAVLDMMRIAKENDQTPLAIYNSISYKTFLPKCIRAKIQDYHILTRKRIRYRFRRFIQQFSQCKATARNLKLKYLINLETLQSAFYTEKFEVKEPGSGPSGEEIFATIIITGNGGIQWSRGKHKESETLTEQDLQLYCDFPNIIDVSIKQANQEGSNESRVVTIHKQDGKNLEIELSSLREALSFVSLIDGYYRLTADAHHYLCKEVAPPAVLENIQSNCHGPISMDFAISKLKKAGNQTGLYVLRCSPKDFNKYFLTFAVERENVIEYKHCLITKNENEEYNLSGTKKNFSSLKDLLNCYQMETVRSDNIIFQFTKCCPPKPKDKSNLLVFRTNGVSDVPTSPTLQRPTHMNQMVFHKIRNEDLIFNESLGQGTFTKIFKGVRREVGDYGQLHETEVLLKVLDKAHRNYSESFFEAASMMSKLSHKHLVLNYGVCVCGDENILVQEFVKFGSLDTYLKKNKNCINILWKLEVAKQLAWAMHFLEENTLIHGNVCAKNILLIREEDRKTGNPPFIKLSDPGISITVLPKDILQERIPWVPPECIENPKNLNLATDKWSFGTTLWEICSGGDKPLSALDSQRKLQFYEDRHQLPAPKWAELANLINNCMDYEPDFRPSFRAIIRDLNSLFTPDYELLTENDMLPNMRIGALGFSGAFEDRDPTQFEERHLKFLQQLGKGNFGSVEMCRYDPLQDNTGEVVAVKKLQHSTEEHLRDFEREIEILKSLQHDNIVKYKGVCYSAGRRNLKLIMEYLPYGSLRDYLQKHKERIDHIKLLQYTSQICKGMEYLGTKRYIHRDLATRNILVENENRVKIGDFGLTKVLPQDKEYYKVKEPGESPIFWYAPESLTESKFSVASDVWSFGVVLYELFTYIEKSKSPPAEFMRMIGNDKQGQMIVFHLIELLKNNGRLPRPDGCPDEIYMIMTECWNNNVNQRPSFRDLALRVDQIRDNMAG

RKO = test: cells; type: cell-based; conditions: Homo sapiens, RKO, read-out: Basal_Viability ATP RKO
INS-1E cells = test: cells; type: cell-based, rat
[2] = tested on: HCT116 cells treated with a GSK3β inhibitor; test: cells; type: cell-based; conditions: Homo sapiens, HCT-116, read-out: GSK3b inh pretreated_Viability ATP HCT116
hFLT3 = target: T5, hFLT3 (Homo sapiens, UniProt P36888); test: Cerep LANCE kinase assay hFLT3 (S1 assay 35); type: biochemical; conditions: read-out: FLT3
T5 construct: purchased Cerep (LANCE kinase assay platform, contract assay)
T5 sequence (P36888 27-993): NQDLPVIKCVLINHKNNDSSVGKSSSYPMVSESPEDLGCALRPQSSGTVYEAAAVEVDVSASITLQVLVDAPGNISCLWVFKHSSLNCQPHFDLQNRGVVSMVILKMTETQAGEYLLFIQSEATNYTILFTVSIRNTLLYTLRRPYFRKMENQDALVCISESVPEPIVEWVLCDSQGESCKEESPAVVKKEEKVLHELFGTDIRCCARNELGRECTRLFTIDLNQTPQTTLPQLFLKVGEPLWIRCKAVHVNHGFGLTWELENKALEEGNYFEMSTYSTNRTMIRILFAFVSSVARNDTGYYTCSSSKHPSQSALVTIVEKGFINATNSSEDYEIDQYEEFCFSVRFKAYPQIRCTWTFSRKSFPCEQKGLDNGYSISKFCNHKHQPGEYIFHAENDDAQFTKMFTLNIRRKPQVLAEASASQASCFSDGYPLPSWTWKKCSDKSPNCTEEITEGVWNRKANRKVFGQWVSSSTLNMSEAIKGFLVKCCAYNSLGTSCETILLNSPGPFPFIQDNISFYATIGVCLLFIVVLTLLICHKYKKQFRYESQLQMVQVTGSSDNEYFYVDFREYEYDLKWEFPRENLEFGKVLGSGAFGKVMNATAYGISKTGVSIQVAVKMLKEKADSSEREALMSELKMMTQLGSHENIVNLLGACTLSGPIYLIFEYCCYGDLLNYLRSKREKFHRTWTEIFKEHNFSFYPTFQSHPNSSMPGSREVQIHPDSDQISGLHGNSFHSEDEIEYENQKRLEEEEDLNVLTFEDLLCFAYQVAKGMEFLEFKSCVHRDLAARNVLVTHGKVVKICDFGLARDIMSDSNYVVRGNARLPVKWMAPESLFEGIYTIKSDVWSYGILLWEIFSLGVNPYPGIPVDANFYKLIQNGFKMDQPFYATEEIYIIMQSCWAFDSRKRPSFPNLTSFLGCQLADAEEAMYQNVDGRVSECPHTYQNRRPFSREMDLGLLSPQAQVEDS

[3] = tested on: endothelial tube formation in co-cultures of ECFCs and ADSCs treated with VEGF; test: cells; type: cell-based, human
SNU-C1 = test: cells; type: cell-based; conditions: Homo sapiens, SNU-C1, basal; SNU-C1; read-out: Basal_Viability ATP SNU-C1
[4] = COLO 320, read-out: Basal_Viability ATP Colo 320
[5] = Mus musculus, C2C12, read-out: Wnt Pathway
[6] = HCT-116, read-out: Basal_Viability ATP HCT116
[7] = Homo sapiens, NCI-H716, read-out: GLP 1 Secretion
[8] = HT-29, read-out: Basal_Viability ATP HT-29
[9] = DLD-1, read-out: Basal_Viability ATP DLD-1
[10] = SW480, read-out: Basal_Viability ATP SW480
[11] = Rattus norvegicus, INS-1E, read-out: Insulin Secretion
[12] = Homo sapiens, read-out: Anti-Angiogenesis

| SMILES | IC50 (Colo320; [4]) [nM] | IC50 (hp70S6K1 (RPS6KB1)) [nM] | EC50 (HeLa cells; Homo sapiens, HeLa) [nM] | EC50 [1, 5] [nM] | IC50 (HCT116; [6]) [nM] | EC50 (NCI-H716 cells; [7]) [nM] | IC50 (HT-29; [8]) [nM] | IC50 (DLD-1; [9]) [nM] | IC50 (SW480; [10]) [nM] | IC50 (hGSK3b) [nM] | IC50 (hKDR) [nM] | IC50 (hJAK2) [nM] | IC50 (RKO) [nM] | EC50 (INS-1E cells; [11]) [nM] | IC50 [2] [nM] | IC50 (hFLT3) [nM] | IC50 [3, 12] [nM] | IC50 (hp70S6K1 (RPS6KB1); kinase assay) [nM] | IC50 (hGSK3b; kinase assay) [nM] | IC50 (hKDR; kinase assay) [nM] | also measured |
| --- | --- | --- | --- | --- | --- | --- | --- | --- | --- | --- | --- | --- | --- | --- | --- | --- | --- | --- | --- | --- | --- |
| CC(C)(C)[C@H]1CC[C@H](CC2=C(O)C(=O)c3ccccc3C2=O)CC1 [Buparvaquone] | 255 | > 20000 | > 10000 | > 10000 | 227 | > 10000 | 3390 | 218 | 205 | > 20000 | > 20000 | > 20000 | 133 | > 10000 | 66.7 | > 20000 | 1960 | – | – | – | – |
| COC(=O)Nc1nc2ccc(C(=O)C3CC3)cc2[nH]1 [Ciclobendazole] | – | – | – | – | – | – | – | – | – | – | – | – | – | – | – | – | – | > 20000 | 14900 | 15100 | IC50 (Colo320; basal, Colo 320, read-out: Basal_Viability ATP Colo 320): 156 nM; EC50 (HeLa cells; Homo sapiens, HeLa, S2 Table, HeLa, 20 = no response at highest concentration): 416 nM; EC50 ([1]; Mus musculus, C2C12; read-out: Wnt Pathway): 349 nM; IC50 (HCT116; HCT-116, basal, HCT116, read-out: Basal_Viability ATP HCT116): 174 nM; EC50 (NCI-H716 cells; Homo sapiens, NCI-H716; read-out: GLP 1 Secretion): > 10000 nM; IC50 (HT-29; basal, HT-29, read-out: Basal_Viability ATP HT-29): 1680 nM; IC50 (DLD-1; DLD-1, basal, DLD-1, read-out: Basal_Viability ATP DLD-1): 5460 nM; IC50 (SW480; SW480, basal, SW480, read-out: Basal_Viability ATP SW480): > 20000 nM; IC50 (hJAK2; kinase assay): > 20000 nM; IC50 (RKO; basal): 162 nM; IC50 (SNU-C1): > 20000 nM; EC50 (INS-1E cells; Rattus norvegicus, INS-1E; read-out: Insulin Secretion): > 10000 nM; IC50 (hFLT3; kinase assay): 6140 nM; IC50 ([3]; Homo sapiens; read-out: Anti-Angiogenesis): 1190 nM |
| COC(=O)Nc1nc2ccc([S+]([O-])c3ccccc3)cc2[nH]1 (stereo not shown) [Oxfendazole] | – | – | 331 | 468 | 1 | > 10000 | > 20000 | > 20000 | > 20000 | – | – | – | 1 | > 10000 | 1 | – | 288 | > 20000 | > 20000 | > 20000 | IC50 (hJAK2; kinase assay): > 20000 nM; IC50 (hFLT3; kinase assay): > 20000 nM |
| CC[C@]1(O)C[C@@H]2CN(CCc3c([nH]c4ccccc34)[C@@](C(=O)OC)(c3cc4c(cc3OC)N(C)[C@H]3[C@@](O)(C(=O)OC)[C@H](OC(C)=O)[C@]5(CC)C=CCN6CC[C@]43[C@@H]65)C2)C1 [Vinblastine] | 1 | > 20000 | 3.2 | 5.8 | – | > 10000 | 1 | – | – | > 20000 | > 20000 | > 20000 | 1 | > 10000 | 1 | > 20000 | 2.3 | – | – | – | EC50 (HeLa cells): 4.83 nM; EC50 ([1]; read-out: Wnt Pathway): 3.5 nM; IC50 ([3]; read-out: Anti-Angiogenesis): 2.6 nM |
